Test system: Sprague-Dawley female rats
Assay: Evaluation of longitudinal bone growth effect, tetracycline staining method
Type: in vivo, rat
Procedure: As experimental animals, four-week-old Sprague-Dawley female rats (Samtako, Korea) weighing about 100 g were purchased and cared for so as to be acclimatized to the experimental environment while supplying sufficient feed and water. After about 1 week for the acclimatization period, animal testing was performed.
Two days after administration, 20 mg/kg of tetracycline hydrochloride (Sigma T7660) was injected intraperitoneally to all test groups. Two days thereafter, the rats were sacrificed via cervical dislocation, after which the left and right tibiae were removed, fixed in a fixing solution at 4° C. for 3 days, allowed to stand in 50 mM EDTA for 1 day, demineralized, and immersed in 30% sucrose overnight to protect freezing. The bone tissue thus dehydrated was frozen, and cut into 40 μm sections using a sliding microtome (HM440E, Zeiss, Germany), thus collecting sagittal sections of the proximal part of the tibia. To measure the bone growth, each sagittal section of the proximal part of the tibia, 40 μm thick, was placed on a slide glass, dried, and then observed under UV light at a wavelength of 400 nm using a fluorescence microscope (FIG. 1). Using image analysis software ImageJ (NIH, USA), the length between the fluorescence bands formed by the deposition of tetracycline in the growth plate and the bone tissue was measured, and Student's t-test and ANOVA test for comparison with a control group were performed in order to determine the growth effect.
The Hordeum vulgare extract prepared in Example 1 was administered after having been dissolved in a concentration of 30 mg/kg in type II distilled water in a volume of 1.0 ml per 100 g of rat weight, and as a control group, the same volume of type II distilled water was administered. The Hordeum vulgare extract was orally administered two times a day for a total of four days, starting from 2 days before the administration of tetracycline until the test termination day. […]

Substance: Positive control group: recombinant human growth hormone (rhGH; LG Lifescience, Eutropin®)
- Longitudinal bone growth rate (%) (Table 1, extract 30 mg/kg (p.o.), positive control 20 μg/kg (s.c.)): 6.6%
- longitudinal bone growth rate (proximal tibia, tetracycline band length, 4 days dosing, extract 30 mg/kg p.o. two times a day, rhGH 20 μg/kg s.c. once a day): 360.1±35.8 μm/day
- longitudinal bone growth rate, % higher than normal control group (vs 337.8±30.0 μm/day in normal control group, extract 30 mg/kg p.o. (p<0.001), rhGH 20 μg/kg s.c. (not significant)): 6.6%

Source: patent US11324795B2, “Composition comprising Hordeum vulgare extract for preventing or treating short stature” (UNIVERSITY-INDUSTRY COOPERATION GROUP OF KYUNG HEE …, priority 2013, dated 2022)
